The target of assay [1] is T1, Tyrosine-protein phosphatase non-receptor type 22 (Homo sapiens, UniProt Q9Y2R2).
T1 sequence (Q9Y2R2 whole entry): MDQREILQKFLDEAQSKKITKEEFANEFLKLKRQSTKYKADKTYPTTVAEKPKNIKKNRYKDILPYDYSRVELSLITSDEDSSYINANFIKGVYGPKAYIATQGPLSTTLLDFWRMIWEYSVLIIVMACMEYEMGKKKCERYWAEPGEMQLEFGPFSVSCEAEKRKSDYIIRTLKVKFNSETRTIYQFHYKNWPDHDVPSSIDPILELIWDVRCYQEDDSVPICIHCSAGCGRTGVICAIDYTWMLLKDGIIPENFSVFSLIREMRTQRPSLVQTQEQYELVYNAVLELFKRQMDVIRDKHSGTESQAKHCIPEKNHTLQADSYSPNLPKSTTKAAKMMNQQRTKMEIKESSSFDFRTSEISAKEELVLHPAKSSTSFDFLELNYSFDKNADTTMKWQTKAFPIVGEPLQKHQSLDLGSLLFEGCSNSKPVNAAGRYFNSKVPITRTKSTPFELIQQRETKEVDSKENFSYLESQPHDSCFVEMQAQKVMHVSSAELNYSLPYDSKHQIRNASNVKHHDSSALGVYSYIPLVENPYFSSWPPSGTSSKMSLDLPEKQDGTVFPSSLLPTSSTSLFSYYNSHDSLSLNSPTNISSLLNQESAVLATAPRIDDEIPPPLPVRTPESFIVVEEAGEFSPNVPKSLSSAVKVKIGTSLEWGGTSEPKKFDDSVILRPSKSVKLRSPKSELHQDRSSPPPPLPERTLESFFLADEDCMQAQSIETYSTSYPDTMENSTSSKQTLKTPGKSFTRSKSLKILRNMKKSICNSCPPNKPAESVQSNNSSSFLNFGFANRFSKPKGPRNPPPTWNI
Nature of the assay: LYP (PTPN22) phosphatase inhibitor potency, SAR follow-up, biochemical, pCAP fluorogenic substrate, fluorescence, set 3 (AID 449727). In kind it is functional.

The target in assay [2] is Tyrosine-protein phosphatase non-receptor type 12 (Homo sapiens, UniProt Q05209). The assay is described as follows: SAR Selectivity Analysis of small molecule inhibitors of PEST using pCAP in a fluorescence assay. [Related pubchem assays (depositor defined):AID1779, AID1784, AID2135]. It counts as functional.
Assay [3] addresses T1, Tyrosine-protein phosphatase non-receptor type 22. The assay is described as follows: SAR LYP1 Fluorescent Assay using pCAP substrate for In Vitro dose response studies - Set 2. [Related pubchem assays (depositor defined):AID1779, AID1784, AID2135, AID449727]. It counts as functional.
Assay [4] shares this target. The assay is described as follows: SAR LYP1 Fluorescent Assay using OMFP substrate for In Vitro dose response studies - Set 3. [Related pubchem assays (depositor defined):AID1779, AID1784, AID2140, AID2686]. It counts as functional.
For assay [5], the target named is T2, Tyrosine-protein phosphatase non-receptor type 7 (Homo sapiens, UniProt P35236).
T2 sequence (P35236 whole entry): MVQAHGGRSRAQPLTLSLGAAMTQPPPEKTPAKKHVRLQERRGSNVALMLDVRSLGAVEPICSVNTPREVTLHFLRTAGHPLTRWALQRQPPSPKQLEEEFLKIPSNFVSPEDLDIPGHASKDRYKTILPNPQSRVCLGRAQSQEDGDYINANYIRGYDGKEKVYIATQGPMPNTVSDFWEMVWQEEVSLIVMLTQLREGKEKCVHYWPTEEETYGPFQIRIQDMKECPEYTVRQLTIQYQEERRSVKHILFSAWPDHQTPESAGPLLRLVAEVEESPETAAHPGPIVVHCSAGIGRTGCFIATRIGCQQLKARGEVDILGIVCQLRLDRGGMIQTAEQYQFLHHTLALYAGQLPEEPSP
Nature of the assay: HePTP (PTPN7) phosphatase inhibitor potency, SAR follow-up, biochemical, set 2 (AID 449736). It counts as functional.

Assay [6] deals with T1, Tyrosine-protein phosphatase non-receptor type 22. Nature of the assay: SAR LYP1 Fluorescent Assay using OMFP substrate for In Vitro dose response studies - Set 2. [Related pubchem assays (depositor defined):AID1779, AID1784, AID2140, AID449726, AID488869]. In kind it is functional.
The target in the next assay is Large T antigen (Simian virus 40, UniProt P03070). In kind it is functional, Betapolyomavirus macacae.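 Note: Confirmatory-stage PubChem screen for compounds that inhibit SV40 T antigen.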
Assay [7] addresses T3, High affinity choline transporter 1 (Homo sapiens, UniProt Q9GZV3).
T3 sequence (Q9GZV3 whole entry): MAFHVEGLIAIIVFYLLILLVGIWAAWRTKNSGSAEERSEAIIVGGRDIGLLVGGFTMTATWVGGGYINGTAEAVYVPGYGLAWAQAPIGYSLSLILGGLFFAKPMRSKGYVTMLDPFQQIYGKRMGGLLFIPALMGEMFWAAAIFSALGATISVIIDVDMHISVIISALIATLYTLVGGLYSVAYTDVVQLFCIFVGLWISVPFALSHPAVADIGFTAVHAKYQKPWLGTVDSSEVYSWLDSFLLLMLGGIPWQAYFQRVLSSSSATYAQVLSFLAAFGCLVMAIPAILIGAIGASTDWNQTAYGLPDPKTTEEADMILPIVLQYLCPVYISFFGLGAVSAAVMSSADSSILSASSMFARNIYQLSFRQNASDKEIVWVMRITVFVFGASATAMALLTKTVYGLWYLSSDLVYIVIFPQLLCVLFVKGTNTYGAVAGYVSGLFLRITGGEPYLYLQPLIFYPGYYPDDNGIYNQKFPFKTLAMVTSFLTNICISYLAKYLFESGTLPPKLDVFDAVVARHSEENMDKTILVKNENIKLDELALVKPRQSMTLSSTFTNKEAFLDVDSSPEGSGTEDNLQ
Nature of the assay: CHT inhibitors, dose response, cell-based, 5-point CRC, membrane potential dye (AID 504840). In kind it is functional.

The target of assay [8] is T4, Zinc finger protein mex-5 (Caenorhabditis elegans, UniProt Q9XUB2).
T4 sequence (Q9XUB2 whole entry): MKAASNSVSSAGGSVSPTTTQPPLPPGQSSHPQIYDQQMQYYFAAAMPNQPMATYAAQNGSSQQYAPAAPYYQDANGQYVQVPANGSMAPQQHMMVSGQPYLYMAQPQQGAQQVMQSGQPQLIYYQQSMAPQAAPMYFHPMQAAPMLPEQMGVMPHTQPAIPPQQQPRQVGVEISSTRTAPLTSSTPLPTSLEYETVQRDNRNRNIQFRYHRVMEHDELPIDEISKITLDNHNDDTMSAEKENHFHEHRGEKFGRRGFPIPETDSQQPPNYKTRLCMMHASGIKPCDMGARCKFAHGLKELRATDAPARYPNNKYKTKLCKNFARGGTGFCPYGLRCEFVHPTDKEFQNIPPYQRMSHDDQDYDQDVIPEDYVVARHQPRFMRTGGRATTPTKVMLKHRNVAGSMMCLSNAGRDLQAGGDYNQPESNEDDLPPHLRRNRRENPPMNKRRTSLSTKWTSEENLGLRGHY
Nature of the assay: MEX-5/TCR-2 RNA interaction inhibitors, dose response, biochemical, C. elegans, fluorescence polarization (AID 1960). For orientation: Polarisation of emitted light reports the rotation of a fluorescent probe.

The target of assay [9] is Ras and Rab interactor 1/Tyrosine-protein kinase ABL1 (Homo sapiens, UniProt P00519+Q13671). In kind it is functional.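 Note: biochemical TR-FRET dose-response test measuring inhibition of binding between Rin1 and Abl proteins.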
Ras and Rab interactor 1/Tyrosine-protein kinase ABL1, sequence (P00519 whole entry): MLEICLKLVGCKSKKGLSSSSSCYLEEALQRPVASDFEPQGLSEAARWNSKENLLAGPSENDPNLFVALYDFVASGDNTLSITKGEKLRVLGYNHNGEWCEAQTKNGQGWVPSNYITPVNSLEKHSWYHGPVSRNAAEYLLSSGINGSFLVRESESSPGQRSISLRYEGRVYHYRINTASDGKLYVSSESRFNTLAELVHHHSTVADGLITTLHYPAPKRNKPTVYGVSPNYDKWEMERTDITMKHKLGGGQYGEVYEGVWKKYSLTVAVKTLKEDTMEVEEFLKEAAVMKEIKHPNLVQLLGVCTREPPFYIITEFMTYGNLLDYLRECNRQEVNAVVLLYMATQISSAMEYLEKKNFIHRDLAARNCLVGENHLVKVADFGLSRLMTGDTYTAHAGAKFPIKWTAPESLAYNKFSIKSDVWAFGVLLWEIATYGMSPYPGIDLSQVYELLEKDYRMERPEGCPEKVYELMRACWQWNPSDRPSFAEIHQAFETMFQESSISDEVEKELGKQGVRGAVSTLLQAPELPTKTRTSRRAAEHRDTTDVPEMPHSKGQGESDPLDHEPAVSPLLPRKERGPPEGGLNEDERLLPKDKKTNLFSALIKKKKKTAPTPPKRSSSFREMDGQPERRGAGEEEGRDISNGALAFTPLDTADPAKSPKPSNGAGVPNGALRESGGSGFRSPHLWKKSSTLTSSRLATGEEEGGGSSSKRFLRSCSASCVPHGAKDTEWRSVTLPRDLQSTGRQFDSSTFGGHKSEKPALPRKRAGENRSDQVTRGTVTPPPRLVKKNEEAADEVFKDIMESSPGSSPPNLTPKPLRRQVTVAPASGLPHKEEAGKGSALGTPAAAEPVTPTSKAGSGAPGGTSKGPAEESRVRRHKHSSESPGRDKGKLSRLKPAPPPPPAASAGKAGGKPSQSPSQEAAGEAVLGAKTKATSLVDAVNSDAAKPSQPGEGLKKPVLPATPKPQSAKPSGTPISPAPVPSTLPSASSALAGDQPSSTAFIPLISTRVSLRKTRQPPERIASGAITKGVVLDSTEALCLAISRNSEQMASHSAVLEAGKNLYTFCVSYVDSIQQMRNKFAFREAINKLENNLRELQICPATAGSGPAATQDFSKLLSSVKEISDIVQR
Ras and Rab interactor 1/Tyrosine-protein kinase ABL1, sequence (Q13671 whole entry): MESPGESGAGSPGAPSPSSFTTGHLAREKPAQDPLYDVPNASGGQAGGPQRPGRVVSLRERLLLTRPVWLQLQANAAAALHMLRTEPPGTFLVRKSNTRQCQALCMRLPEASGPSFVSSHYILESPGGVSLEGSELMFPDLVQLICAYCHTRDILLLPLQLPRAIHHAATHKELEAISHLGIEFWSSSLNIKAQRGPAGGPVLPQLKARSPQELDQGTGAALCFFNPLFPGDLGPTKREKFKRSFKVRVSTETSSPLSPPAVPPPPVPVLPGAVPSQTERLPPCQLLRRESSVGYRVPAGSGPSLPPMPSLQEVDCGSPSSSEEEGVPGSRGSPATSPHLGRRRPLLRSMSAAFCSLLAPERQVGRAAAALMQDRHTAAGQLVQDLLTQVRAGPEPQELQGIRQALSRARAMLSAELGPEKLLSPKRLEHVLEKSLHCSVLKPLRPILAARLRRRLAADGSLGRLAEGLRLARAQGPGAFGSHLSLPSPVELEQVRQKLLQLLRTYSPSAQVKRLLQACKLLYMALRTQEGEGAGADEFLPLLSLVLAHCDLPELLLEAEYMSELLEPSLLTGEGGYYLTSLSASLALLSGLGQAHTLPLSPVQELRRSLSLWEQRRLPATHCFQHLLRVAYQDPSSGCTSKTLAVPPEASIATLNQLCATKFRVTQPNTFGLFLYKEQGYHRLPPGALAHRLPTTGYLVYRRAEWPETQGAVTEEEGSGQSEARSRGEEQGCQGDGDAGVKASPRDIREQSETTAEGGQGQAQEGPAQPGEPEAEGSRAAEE
In assay [10] the target is Intestinal-type alkaline phosphatase (Mus musculus, UniProt P24822). The assay is described as follows: PubChem AID 488785. In kind it is functional.
Intestinal-type alkaline phosphatase (Mus musculus, UniProt P24822), sequence (P24822 whole entry): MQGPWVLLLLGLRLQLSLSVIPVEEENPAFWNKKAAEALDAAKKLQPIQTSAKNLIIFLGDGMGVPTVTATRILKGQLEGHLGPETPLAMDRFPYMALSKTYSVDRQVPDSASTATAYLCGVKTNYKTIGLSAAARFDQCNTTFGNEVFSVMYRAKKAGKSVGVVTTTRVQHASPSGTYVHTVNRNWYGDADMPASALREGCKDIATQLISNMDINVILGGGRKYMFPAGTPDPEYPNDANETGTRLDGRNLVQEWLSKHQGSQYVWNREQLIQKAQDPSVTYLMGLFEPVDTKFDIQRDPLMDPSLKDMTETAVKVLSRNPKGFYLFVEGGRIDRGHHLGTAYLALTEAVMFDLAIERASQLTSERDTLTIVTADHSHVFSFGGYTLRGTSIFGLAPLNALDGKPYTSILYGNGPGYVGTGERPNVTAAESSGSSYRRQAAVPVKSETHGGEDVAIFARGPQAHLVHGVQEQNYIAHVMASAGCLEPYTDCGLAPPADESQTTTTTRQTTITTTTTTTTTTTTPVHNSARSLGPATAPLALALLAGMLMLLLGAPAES
In assay [11] the target is T5, Alkaline phosphatase, tissue-nonspecific isozyme (Homo sapiens, UniProt P05186).
T5 sequence (P05186 whole entry): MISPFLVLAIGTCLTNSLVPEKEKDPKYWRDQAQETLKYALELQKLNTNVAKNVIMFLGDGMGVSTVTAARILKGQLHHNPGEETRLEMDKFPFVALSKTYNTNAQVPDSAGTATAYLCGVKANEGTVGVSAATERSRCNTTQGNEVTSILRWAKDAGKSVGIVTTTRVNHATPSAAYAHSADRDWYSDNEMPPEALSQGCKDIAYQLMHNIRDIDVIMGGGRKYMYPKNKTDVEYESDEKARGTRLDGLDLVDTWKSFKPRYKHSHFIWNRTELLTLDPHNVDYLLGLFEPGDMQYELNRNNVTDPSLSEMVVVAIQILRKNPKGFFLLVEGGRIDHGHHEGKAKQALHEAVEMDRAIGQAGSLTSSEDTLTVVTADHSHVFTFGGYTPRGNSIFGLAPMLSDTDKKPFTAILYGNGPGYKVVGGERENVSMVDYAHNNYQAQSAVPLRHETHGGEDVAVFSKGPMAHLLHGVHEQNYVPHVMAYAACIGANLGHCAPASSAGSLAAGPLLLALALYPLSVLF
Nature of the assay: TNAP enzyme inhibition by screening hits, dose response, selectivity assay for mouse IAP inhibitor project, biochemical, human TNAP, uHTS hits (AID 488906). It counts as functional.

For assay [12], the target named is Intestinal-type alkaline phosphatase (Homo sapiens, UniProt P09923). The assay is described as follows: activation of human intestinal alkaline phosphatase – biochemical, dose response (AID 488873). In kind it is functional.
Intestinal-type alkaline phosphatase (Homo sapiens, UniProt P09923), sequence (P09923 whole entry): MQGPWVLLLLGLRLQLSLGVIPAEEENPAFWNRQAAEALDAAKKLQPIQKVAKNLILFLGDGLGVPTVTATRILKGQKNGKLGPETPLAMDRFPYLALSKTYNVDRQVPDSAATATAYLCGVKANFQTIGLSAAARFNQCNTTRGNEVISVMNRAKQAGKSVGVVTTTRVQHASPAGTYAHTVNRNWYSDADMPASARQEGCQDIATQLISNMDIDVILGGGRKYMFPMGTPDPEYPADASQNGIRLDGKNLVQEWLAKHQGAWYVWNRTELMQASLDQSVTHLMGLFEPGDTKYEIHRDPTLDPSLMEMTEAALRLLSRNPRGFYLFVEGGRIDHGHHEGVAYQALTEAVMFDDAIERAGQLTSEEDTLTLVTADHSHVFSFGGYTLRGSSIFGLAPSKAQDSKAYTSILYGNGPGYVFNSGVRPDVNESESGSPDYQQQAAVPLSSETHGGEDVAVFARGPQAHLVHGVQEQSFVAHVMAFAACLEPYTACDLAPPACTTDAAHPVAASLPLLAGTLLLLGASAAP
The target of assay [13] is T6, RNA-binding protein pos-1 (Caenorhabditis elegans, UniProt G5EF15).
T6 sequence (G5EF15 whole entry): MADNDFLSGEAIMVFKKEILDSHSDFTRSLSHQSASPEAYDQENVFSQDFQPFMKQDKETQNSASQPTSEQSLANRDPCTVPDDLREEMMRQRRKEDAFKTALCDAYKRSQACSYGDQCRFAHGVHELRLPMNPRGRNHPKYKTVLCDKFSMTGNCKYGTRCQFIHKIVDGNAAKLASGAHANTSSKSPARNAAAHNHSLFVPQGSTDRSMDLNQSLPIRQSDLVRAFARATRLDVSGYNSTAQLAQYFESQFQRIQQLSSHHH
The assay is described as follows: inhibitors of POS-1/mex-3 RNA binding, dose response, biochemical, fluorescence polarization (AID 1964).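 Note: purified POS-1 fused to maltose binding protein made in E. coli; potency of compounds blocking POS-1 binding to fluorescent RNA.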

The target in the next assay is Albumin (Bos taurus, UniProt P02769). Nature of the assay: Counterscreen for inhibitors of T-cell receptor (TCR)-CD3 interaction: Fluorescence-based biochemical high throughput dose response assay to identify inhibitors of T-cell receptor (TCR)-CD3 interaction using a TAMRA-labeled BSA probe. In kind it is functional. On the technique in general: A counterscreen serves to expose hits that act by an unwanted route or on another target.

For assay [14], the target named is Peroxisome proliferator-activated receptor gamma/Nuclear receptor coactivator 1 (Homo sapiens, UniProt P37231). Nature of the assay: TR-FRET dose response biochemical High Throughput Screening assay for agonists of the steroid receptor coactivator 1 (SRC-1) recruitment by the peroxisome proliferator-activated receptor gamma (PPAR gamma): non-selective agonists. [Related pubchem assays (depositor defined):AID1300, AID1808, AID504735, AID631]. In kind it is protein assay. (TR-FRET usually uses a lanthanide donor and a delayed reading to cut background.)

For assay [15], the target named is Peroxisome proliferator-activated receptor gamma/Nuclear receptor coactivator 3 (Homo sapiens, UniProt P37231). Nature of the assay: TR-FRET dose response biochemical High Throughput Screening assay for agonists of the steroid receptor coactivator 3 (SRC-3) recruitment by the peroxisome proliferator-activated receptor gamma (PPAR gamma): non-selective agonists. [Related pubchem assays: 1301 (Confirmation screen.), 1048 (Primary screen.)]. In kind it is functional.

The target of assay [16] is Peroxisome proliferator-activated receptor gamma/Nuclear receptor coactivator 2 (Homo sapiens, UniProt P37231). The assay is described as follows: TR-FRET dose response biochemical High Throughput Screening assay for agonists of the steroid receptor coactivator 2 (SRC-2) recruitment by the peroxisome proliferator-activated receptor gamma (PPAR gamma): non-selective agonists. [Related pubchem assays: 1297, 1032 ]. It counts as functional.
Peroxisome proliferator-activated receptor gamma/Nuclear receptor coactivator 2, sequence (P37231 whole entry): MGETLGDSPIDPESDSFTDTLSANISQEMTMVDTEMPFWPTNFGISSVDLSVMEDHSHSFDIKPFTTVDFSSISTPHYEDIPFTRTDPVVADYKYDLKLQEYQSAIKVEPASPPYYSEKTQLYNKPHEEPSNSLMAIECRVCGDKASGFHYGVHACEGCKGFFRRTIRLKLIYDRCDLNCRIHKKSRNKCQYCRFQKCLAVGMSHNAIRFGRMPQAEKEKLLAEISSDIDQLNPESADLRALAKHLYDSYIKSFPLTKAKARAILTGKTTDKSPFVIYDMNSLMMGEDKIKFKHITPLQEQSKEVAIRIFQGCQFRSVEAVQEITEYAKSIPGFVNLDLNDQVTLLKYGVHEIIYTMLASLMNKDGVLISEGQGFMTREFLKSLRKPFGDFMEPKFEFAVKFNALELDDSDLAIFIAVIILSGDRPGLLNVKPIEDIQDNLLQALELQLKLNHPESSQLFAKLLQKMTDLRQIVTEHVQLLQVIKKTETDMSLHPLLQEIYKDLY
Peroxisome proliferator-activated receptor gamma/Nuclear receptor coactivator 2, sequence (Q15596 whole entry, further chain): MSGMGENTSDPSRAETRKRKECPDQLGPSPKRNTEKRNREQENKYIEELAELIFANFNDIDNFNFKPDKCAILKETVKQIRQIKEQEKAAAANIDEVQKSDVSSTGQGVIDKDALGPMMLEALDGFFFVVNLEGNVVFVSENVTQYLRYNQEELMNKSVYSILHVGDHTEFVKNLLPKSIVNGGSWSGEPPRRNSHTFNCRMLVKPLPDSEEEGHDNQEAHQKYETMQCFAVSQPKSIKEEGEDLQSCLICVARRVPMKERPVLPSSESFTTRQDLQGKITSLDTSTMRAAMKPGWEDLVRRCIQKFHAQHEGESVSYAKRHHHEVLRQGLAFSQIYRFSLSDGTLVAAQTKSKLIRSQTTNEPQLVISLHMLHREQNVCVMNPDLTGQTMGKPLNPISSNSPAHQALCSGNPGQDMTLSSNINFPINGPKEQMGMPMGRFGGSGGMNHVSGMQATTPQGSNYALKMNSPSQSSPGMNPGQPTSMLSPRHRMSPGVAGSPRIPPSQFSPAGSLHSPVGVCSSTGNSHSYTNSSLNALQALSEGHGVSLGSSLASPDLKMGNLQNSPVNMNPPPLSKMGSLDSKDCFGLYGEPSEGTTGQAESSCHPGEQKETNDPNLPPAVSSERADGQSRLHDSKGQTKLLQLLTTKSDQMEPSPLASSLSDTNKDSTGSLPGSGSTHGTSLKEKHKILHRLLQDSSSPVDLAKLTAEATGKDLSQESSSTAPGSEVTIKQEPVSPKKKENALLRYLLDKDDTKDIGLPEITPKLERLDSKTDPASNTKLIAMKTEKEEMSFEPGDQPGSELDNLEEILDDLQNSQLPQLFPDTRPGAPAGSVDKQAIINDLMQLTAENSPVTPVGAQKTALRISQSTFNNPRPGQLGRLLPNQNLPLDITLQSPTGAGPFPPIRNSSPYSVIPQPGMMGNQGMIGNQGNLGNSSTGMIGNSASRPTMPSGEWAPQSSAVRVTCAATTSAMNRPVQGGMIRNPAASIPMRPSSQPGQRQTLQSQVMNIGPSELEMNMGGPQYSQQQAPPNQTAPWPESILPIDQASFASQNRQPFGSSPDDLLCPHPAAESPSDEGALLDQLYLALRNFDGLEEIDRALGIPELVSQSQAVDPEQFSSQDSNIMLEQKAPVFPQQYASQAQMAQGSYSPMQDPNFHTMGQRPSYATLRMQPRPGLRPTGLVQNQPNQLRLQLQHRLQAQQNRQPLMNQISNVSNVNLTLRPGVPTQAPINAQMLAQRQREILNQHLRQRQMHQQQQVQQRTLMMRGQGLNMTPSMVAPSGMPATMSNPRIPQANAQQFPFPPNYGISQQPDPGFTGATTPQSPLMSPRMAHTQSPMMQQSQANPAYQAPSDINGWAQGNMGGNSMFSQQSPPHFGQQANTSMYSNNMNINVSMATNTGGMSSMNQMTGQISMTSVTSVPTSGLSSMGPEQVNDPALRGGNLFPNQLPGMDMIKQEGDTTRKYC

The target in a further assay is T7, Leucine aminopeptidase (Plasmodium falciparum 3D7, UniProt Q8IL11).
T7 sequence (Q8IL11 whole entry): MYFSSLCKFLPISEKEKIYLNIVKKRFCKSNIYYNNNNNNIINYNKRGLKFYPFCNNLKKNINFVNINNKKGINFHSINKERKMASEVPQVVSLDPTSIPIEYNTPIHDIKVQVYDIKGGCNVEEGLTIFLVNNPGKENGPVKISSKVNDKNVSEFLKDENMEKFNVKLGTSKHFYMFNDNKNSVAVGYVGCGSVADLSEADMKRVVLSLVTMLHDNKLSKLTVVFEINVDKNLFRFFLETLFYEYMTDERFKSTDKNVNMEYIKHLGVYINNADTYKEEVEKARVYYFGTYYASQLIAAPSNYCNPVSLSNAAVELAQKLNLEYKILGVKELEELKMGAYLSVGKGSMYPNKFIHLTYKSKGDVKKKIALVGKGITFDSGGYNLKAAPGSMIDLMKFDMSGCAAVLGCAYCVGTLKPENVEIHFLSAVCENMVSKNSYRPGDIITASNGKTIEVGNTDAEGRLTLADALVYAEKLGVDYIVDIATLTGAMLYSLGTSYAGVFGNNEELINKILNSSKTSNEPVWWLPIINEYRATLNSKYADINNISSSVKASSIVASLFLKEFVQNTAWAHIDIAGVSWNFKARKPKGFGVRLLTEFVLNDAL
Nature of the assay: P. falciparum M17LAP inhibitors, primary screen, biochemical, fluorogenic H-Leu-NHMec substrate, 1536-well (AID 1619). It counts as functional.

IC50 and EC50 data for three molecules are collected here from ChEMBL document CHEMBL1201862, “PubChem BioAssay data set” (2004).

Active and inactive are the calls of the source.

In the case of `CCOc1cc(C=NNC(=O)c2ccc(-c3csc(Nc4ccc(C)cc4)n3)cc2)ccc1OCC(=O)O`, the IC50 in assay [1] was 4.27 µM (active); in [2] it was 1 µM (active); in assay [3], 4.42 µM (active); in [4], 1.04 µM (active); in assay [5], 1.91 µM (active); in assay [6], 5.13 µM (active).
Consider `Oc1ccc(C[C@H]2NCCc3cc(O)c(O)cc32)cc1O`, for which the IC50 is 9.06 µM (active) on Large T antigen; 470 nM (active) in assay [7]; 2.33 µM (active) in assay [9]; 8.06 µM (active) in [10]; 10.1 µM (active) in [11]; > 94.1 µM (inactive) on Albumin. For the same molecule, the EC50 was 5.43 µM (active) in assay [8], > 100 µM (inactive) in assay [12] and 6.36 µM (active) in assay [13].
As to `CCc1nnc(NS(=O)(=O)c2ccc(N/C=C\C(=O)c3cccc4ccccc34)cc2)s1`, the EC50 was > 79.4 µM (inactive) in assay [14], > 8.82 µM (not active) in assay [15] and > 79.4 µM (not active) in assay [16]. The IC50 on Leucine aminopeptidase is 10.1 µM (active).

Broadly, the IC50 is the concentration that gives 50% inhibition. What is called EC50 is the concentration needed to bring the measured effect to its halfway point.
